Target: T1, histamine H2 receptor (Cavia porcellus, UniProt P47747)
T1 construct: the right atrium was dissected from the hearts; from tissue; host or cells: isolated right atrium of male Hartley-strain guinea pigs
Assay: Test on histamine H2 receptor antagonizing activity (isolated right atrium)
Design: species or system Hartley-strain guinea pigs
Conditions: guinea pig right atrium, heart rate; histamine dose-response; test compound 1×10^-6, 1×10^-7 M, 10 minutes; Van Rossum method; read-out: pA2 (converted)
Experimental: Test on histamine H2 receptor antagonizing activity
Hartley-strain guinea pigs (male 300 to 350 g) were stunned with a blow to the head. The heart was removed, and the right atrium was dissected from the hearts in the Krebs' solution bubbled with a […] was suspended in an Organ bath filled with the Krebs' solution kept at 32° C. The gaseous mixture was passed through the Organ bath, and a diastolic tension was adjusted to 1 g. The contraction of the atrium was recorded by a force displacement transducer, and the heart rate was measured by interlocking a heart rate meter to the transducer.
Histamine (used in the form of dihydrochloride; the same hereinafter) was added to the Organ bath cumulatively in a concentration of 1×10^-8 M to 3×10^-5 M. Thus, the dose-response curve of histamine was obtained. The Organ bath was washed several times, and each of the test compounds (1×10^-6, 1×10^-7 M) was added to the Organ bath, and a dose-response curve of histamine in the presence of the test compound was obtained 10 minutes later.
The pA2 value of each of the test compound was determined from the first histamine dose-response curve and the histamine dose-response curve obtained in the presence of the test compounds by the method of J. M. Van Rossum (Arch. Int. Pharmacodyn. Ther., 143-299, 1963).

T1 sequence (P47747 whole entry): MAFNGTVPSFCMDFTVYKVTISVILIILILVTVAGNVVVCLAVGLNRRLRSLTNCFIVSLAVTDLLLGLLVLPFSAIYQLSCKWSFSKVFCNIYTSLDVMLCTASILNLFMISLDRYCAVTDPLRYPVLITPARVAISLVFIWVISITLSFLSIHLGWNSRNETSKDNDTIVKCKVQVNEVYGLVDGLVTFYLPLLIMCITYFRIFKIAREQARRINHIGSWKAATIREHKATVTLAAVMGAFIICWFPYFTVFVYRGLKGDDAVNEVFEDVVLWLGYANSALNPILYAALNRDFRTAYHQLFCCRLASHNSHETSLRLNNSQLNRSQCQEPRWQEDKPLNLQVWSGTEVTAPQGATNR

Row | SMILES | Kb
1 | O=C(C[S+]([O-])Cc1ccco1)NC/C=C\COc1cc(CN2CCCC2)ccn1 (stereo not drawn) [Example 10, N-{4-[4-(pyrrolidinomethyl)pyridyl-2-oxy]-cis-2-butenyl}-2-(furfurylsulfinyl)acetamide] | 126 nM
2 | O=C(CS(=O)(=O)Cc1ccoc1)NC/C=C\COc1cc(CN2CCCC2)ccn1 [Example 11, N-{4-[4-(pyrrolidinomethyl)pyridyl-2-oxy]-cis-2-butenyl}-2-(3-furylmethylsulfonyl)acetamide] | 100 nM
3 | O=C(C[S+]([O-])Cc1ccco1)NC/C=C\COc1cc(CN2CCOCC2)ccn1 (stereo not drawn) [Example 12, N-{4-[4-(morpholinomethyl)pyridyl-2-oxy]-cis-2-butenyl}-2-(furfurylsulfinyl)acetamide] | 251 nM

System: gastric mucosa (lesion by necrotizing agent 0.4N HCl+50% ethanol)
Assay: Test on the Action of Gastric Mucosal Protection
Format: in vivo, Male Donryu rats
Conditions: 10 mg/kg, p.o., 30 minutes before necrotizing agent (0.4N HCl+50% ethanol, 5 ml/kg); stomach isolated after one hour; rats fasted 24 hours
Experimental: Test on the Action of Gastric Mucosal Protection
Male Donryu rats (150 to 250 g) which had been caused to fast for 24 hours were used. In the test, a necrotizing agent (0.4N HCl+50% ethanol) was orally administered in a dose of 5 ml/kg 30 minutes after administering each of the test compounds (10 mg/kg, p.o.). One hour after administration of the necrotizing agent, the stomach was isolated and fixed by formalin. The area of a lesion was measured, and by comparison with a control group, the percent inhibition was determined.

Row | SMILES | Inhibition (%) of lesion area
4 | O=C(CS(=O)(=O)Cc1ccoc1)NC/C=C\COc1cc(CN2CCCCC2)ccn1 [Example 3, N-{4-[4-(piperidinomethyl)pyridyl-2-oxy]-cis-2-butenyl}-2-(3-furylmethylsulfonyl)acetamide] | 62%
5 | O=C(CSCc1ccco1)NC/C=C\COc1cc(CN2CCCCC2)ccn1 [Example 1, N-{4-[4-(piperidinomethyl)pyridyl-2oxy]-cis-2-butenyl)-2-(furfurylthio)acetamide] | 66%
6 | O=C(C[S+]([O-])Cc1ccco1)NC/C=C\COc1cc(CN2CCCCC2)ccn1 (stereo not drawn) [Example 2, N-{4-[4-(piperidinomethyl)pyridyl-2-oxy]-cis-2-butenyl}-2-(furfurylsulfinyl)acetamide] | 32%
7 | O=C(C[S+]([O-])Cc1ccco1)NCCCCOc1cc(CN2CCCCC2)ccn1 (centres unmarked) [Example 21, N-{4-[4-(piperidinomethyl)-pyridyl-2-oxy]-butyl}-2-(furfurylsulfinyl)acetamide] | 32%
8 | O=C(C[S+]([O-])Cc1ccco1)NC/C=C\COc1cc(CN2CCOCC2)ccn1 (stereo not drawn) [Example 12, N-{4-[4-(morpholinomethyl)pyridyl-2-oxy]-cis-2-butenyl}-2-(furfurylsulfinyl)acetamide] | 38%
